Experimental findings from US9981983B2, “Thienopyranones as kinase inhibitors” (SignalRx Pharmaceuticals, Inc., priority 2008, dated 2018) are described below.

pIC50: −log10 of the molar value. Like-named read-outs stand apart in the source and are kept apart here.

One data set deals with 786-O cells. As to the kind of experiment: Cellular proliferation (Example B method), 786-O. Type of data set: cell-based. The note with it: Homo sapiens, 786-0, renal cell carcinoma. As to the method:
PC3 cells were obtained from the American Type Culture Collection (ATCC, Manassas, Va., Cat.# CRL-1435) Two thousand cells from the prostate cancer line PC3 were placed in 50 μL of complete RPMI 1640 media (Invitrogen, Carlsbad, Calif., Cat.#22400-105) with 10% fetal bovine serum (Invitrogen, Carlsbad, Calif., Cat.#10438-026) into each well of 96 well cell culture plates in a hexaplicate sampling pattern. A 50 μL aliquot of test compound (prepared from stock test compounds in DMSO diluted into media) was added to the appropriate well such that the final concentrations of test compound were 200, 40, 8, 1.6, 0.32, 0.064, 0.0128, 0.00256, and 0 μM and the final DMSO concentration was less than or equal to 0.2%.
The plates were incubated for 72 hours 37° C. in an atmosphere of 5% CO2. At the end of this time a 10 μL aliquot of WST solution (Roche Applied Science, Mannheim, Germany) was added into each of the wells. Cells were exposed to the WST solution for 4 hours. A SpectraMax Plus spectrophotometric plate reader (Molecular Devices, Sunnydale, Calif.) was then used to measure the optical density at 450 nm (OD450 nm). Sigmoidal curves were drawn for the dose responses and IC50 values were calculated using the software package GraphPad Prism4 (GraphPad Software, Inc., San Diego, Calif.).
Several other cancer cell lines were obtained from ATCC and grown according to their recommendations and treated with test compounds to obtain the concentration of test compound that inhibited the cellular proliferation by 50% of no-treatment controls. These IC50 values (μM) are listed in Table 7 below obtained by the methods described in Example B: […]

Data set [1] deals with AKT Ser473 phosphorylation in PC3 (prostate cancer) Cell Line. As to the kind of experiment: pAKT Ser473 ELISA in PC3 cells stimulated by Bv8, VEGF, IGF. The data set is classed as cell-based. The conditions noted are these: Homo sapiens, PC-3, PC3, read-out: Concentration Required to Inhibit pAKT to Half-maximal Levels. The procedure: This was followed by the addition of IGF, VEGF and Bv8 to 0.1 μg/mL, 0.1 μg/mL and 2.5 μg/mL respectively for another 30 minutes before harvesting the cells and making cell lysates with RIPA buffer keeping on ice, pAKT levels were measured in duplicate samples with Cell Signaling's Ser473 pAKT ELISA kit. Optical density plate readings of pAKT levels were made at 450 nm (OD450 nm) and were normalized by total protein amount of the cell lysates. The dose of compound at which pAKT levels are reduced to 50% of the non-treatment level was calculated using GraphPad Prism4 software and is listed in Tables 4 and 5 below.

Data set [2] concerns 786-0 renal cell carcinoma xenograft. As to the kind of experiment: 786-0 renal cell carcinoma xenograft mouse model. Type of data set: in vivo, nude mice. The note with it: ip, 3×/wk for 4 weeks. As to the method:
To determine if Cpd 9 has anti-tumor effects, an in vivo study was conducted in a 786-0 renal cell carcinoma xenograft model, 786-0 cells (2×10^6) were inoculated subcutaneously into nude mice in the flank area and tumor growth was monitored with calipers via external measurements. Tumor volume was calculated using the formula volume=(length×width^2)/2. When the average tumor volume reached 400 mm^3, mice were randomly divided into 2 groups and treated with either DMSO (control) or Cpd 9 (25 mg/kg, ip) three times weekly (M, W, F) for two weeks.
To determine if Cpd 28 has anti-tumor effects, an in vivo study was conducted in a 786-0 renal cell carcinoma xenograft model, 786-0 cells (2×10^6) were inoculated subcutaneously into nude mice in the flank area and tumor growth was monitored with calipers via external measurements. Tumor volume was calculated using the formula volume=(length×width^2)/2. Treatment was started when tumors reached an average volume of 300 mm^3. […] DMSO was used as control since this was the vehicle the compounds were dissolved in. Tumor size was monitored twice weekly and body weight was monitored once weekly. Means and standard deviations were calculated and the Student t test method was used for statistical comparisons.

Another data set deals with HT29 (Colon). Put plainly: Cell proliferation MTS assay, HT29. The data set is classed as cell-based. The note with it: Homo sapiens, HT-29, 72 hours. The procedure:
(§1) All cell lines were obtained from ATCC and cultured and plated according to ATCC recommendations. Cells were cultured in complete culture media containing 10% heat-inactivated fetal bovine serum (FBS, Mediatech, Inc.). For adherent cell lines, once cells reached 70% confluency, they were trypsinized and resuspended in phenol red free RPMI media (Mediatech, Inc.) plus 10% heat-inactivated FBS (assay buffer) and 100 μL aliquots were plated into each well of 96-well microtiter plates at a final density of 1,000-2,000 cells/well. Cells were incubated overnight at 37° C. in 5% CO2, and treated with test compounds on the next day. For suspension cell lines, cells were resuspended in assay buffer, plated into 96-well microtiter plates at a density of 10^4-10^5 cells/well/100 μL, and treatment was started on the same day. Cells were treated with vehicle (DMSO) and test compounds for 72 hours at concentration of 100, 70, 40, 20, 10, 5, 2.5, 1.25, 0.5 and 0.2 μM in four replicates at 37° C. in 5% CO2.
(In general: Tetrazolium assays rely on reduction of a dye to a coloured formazan, in cell work by metabolically active cells.)

The nature of data set [3]: Cell proliferation MTS assay, Hela. Type of data set: cell-based. The conditions noted are these: Homo sapiens, 72 hours, read-out: IC50 Hela (Colon). As to the method: as §1

`O=c1cc(N2CCOCC2)oc2c(-c3ccc4c(c3)OCCO4)csc12` [Compound 28, 3-(2,3-dihydrobenzo[b][1,4]dioxin-6-yl)-5-morpholino-7H-thieno[3,2-b]pyran-7-one]: the pIC50 was 5.48 in the data set on 786-O cells; 6.93 in data set [1] (stimulant Bv8); 6.05 in data set [1] (stimulant IGF); 6.64 in data set [1] (stimulant PBS); 6.82 in data set [1] (stimulant VEGF); 5.62 in the data set on HT29 (Colon). The pIC50 in data set [3] is 5.68. For the same compound, the figures for the “tumor growth inhibition compared to control” value in data set [2] (25 mg/kg) and in data set [2] (50 mg/kg) were 70% and 81%, respectively. Moreover, in data set [2] (50 mg/kg), the “body weight change or other abnormalities” value was “no significant body weight change or other abnormalities noted”.
